From US6693123B2 (University of Pittsburgh, priority 1995, dated 2004) come the findings set out here.

Where a name gives a salt, the structure may show the parent alone.

The target in one assay is T1, Rat brain protein farnesyltransferase (Rattus norvegicus, UniProt Q02293+Q04631).
T1 construct: The enzyme is purified according to Reiss, Y., et al., Cell, 62: 81-88 (1990), utilizing steps one through three; from tissue; host or cells: rat brain
Description: In vitro inhibition of protein farnesyltransferase, Amersham scintillation proximity assay with biotin-K Ras B fragment. It is filed as biochemical. The conditions noted are these: Inhibition of farnesyltransferase; compound at 1 × 10^−5 M (Table 1). From the text: The ability of the compounds of the invention to inhibit protein farnesyltransferase or protein geranylgeranyltransferase can be measured according to the method of Moores, et al., J. Biol. Chem. 266: 14603 (1991) or the method of Vogt, et al., J. Biol. Chem. 270:660-664 (1995). In addition, procedures for determination of the inhibition of farnesylation of the oncogene protein Ras are described by Goldstein, et al., J. Biol. Chem., 266:15575-15578 (1991) and by Singh in U.S. Pat. No. 5,245,061.
In addition, in vitro inhibition of protein farnesyltransferase may be measured by the following procedure. Rat brain protein farnesyltransferase activity is measured using an Amersham Life Science commercial scintillation proximity assay kit and substituting a biotin-K Ras B fragment (biotin-[…]Ue-Met-CO2H), 0.1 mM final concentration, for the biotin-lamin substrate provided by Amersham. The enzyme is purified according to Reiss, Y., et al., Cell, 62: 81-88 (1990), utilizing steps one through three. […]
The % inhibition of protein farnesyltransferase was determined for representative compounds of the invention.
For orientation: Scintillation proximity formats need no separation of bound from free tracer.
What is called inhibition is the drop in the measured response relative to a control, in per cent. The compound `CSCC[C@H](NC(=O)c1ccc(NCc2cnc(-c3ccccc3)[nH]2)cc1-c1ccccc1)C(=O)O` [Example 382, 4-[N-(1-H-2-Phenylimidazole-4-yl)methylamino-2-phenylbenzoyl]-methionine] yielded an inhibition at 10 µM of more than 50%.

On to `CC(C)C[C@H](NC(=O)c1ccc(NCc2c[nH]cn2)cc1-c1ccccc1)C(=O)O` [Example 387, 4-[N-(1H-Imidazol-4-yl)methylamino-2-phenylbenzoyl]leucine], for which the inhibition at 10 µM is more than 50%.

The same assay, now with this note: Inhibition of farnesyltransferase; compound at 1 × 10^−6 M (Table 2).
Broadly, the % inhibition is how much of the control response was suppressed. Read a low % inhibition as little suppression. On to `CSCCC(NC(=O)c1ccc(COc2cccnc2)cc1-c1ccccc1)C(=O)NS(=O)(=O)N1CCOCC1` (stereo not shown) [Example 318, [4-(3-Pyridyloxymethyl)-2-phenylbenzoyl]methionine 1-Morpholinylsulfonimide], for which the “% inhibition at 1 × 10^−6 M” value was 98%.

As to `CSCC[C@H](NC(=O)c1ccc(NC(=O)c2cnccc2C(F)(F)F)cc1-c1ccccc1C)C(=O)[O-].[Li+]` [Example 481, N-[4-N-(4-Trifluoromethylnicotinoyl)amino-2-(2-methylphenyl)benzoyl]methionine Lithium Salt], the “% inhibition at 1 × 10^−6 M” value stood at 95%.

As to “{4-[2-(Pyrid-3-yl)ethenyl]-2-(2-methylphenyl)benzyl}methionine Butyl Ester [Example 292]”, the “% inhibition at 1 × 10^−6 M” value stood at 36%.

Turning to “[4-(3-Pyridyloxymethyl)-2-(2-chlorophenyl)benzoyl]methionine Methyl Ester [Example 305]”, the “% inhibition at 1 × 10^−6 M” value turned out to be 99%.

Consider `CCNC(=O)CC[C@H](NC(=O)c1ccc(COc2cccnc2)cc1-c1ccccc1C)C(=O)O` [Example 315, (S)-2-N-[4-(3-Pyridyloxymethyl)-2-(2-methylphenyl)benzoyl]amino-4-(N-ethylaminocarbonyl)butanoic Acid], for which the “% inhibition at 1 × 10^−6 M” value came out at 93%.

The assay is the same for the next values; noted with them: Inhibition of farnesyltransferase; compound at 1 × 10^−6 M (Table 2); read-out: % inhibition at 1 × 10^−6 M.
On to `CSCC[C@H](NC(=O)c1ccc(CCc2c[nH]cn2)cc1-c1ccccc1)C(=O)O` [Example 329, {4-[2-(1H-Imidazol-4-yl)ethyl]-2-phenylbenzoyl}methionine], for which the inhibition at 1 µM was 98%.

Turning to `CSCC[C@H](NC(=O)c1cc(-c2ccc(C)cc2)c(COc2cccnc2)cc1-c1ccccc1C)C(=O)O` [Example 343], the inhibition at 1 µM stood at 72%.

As to `CSCC[C@H](NC(=O)c1ccc(CN(Cc2ccccc2)c2cccnc2)cc1-c1ccccc1C)C(=O)OCOC(=O)C(C)(C)C` [Example 500, Pivaloyloxymethyl N-[4-N-Benzyl-N-pyridin-3-ylaminomethyl-2-(2-methylphenyl)benzoyl]methionine], the inhibition at 1 µM was determined as 98%.

Take `O=C(N[C@H]1CCOC1=O)c1ccc(NCc2cccnc2)cc1-c1ccccc1` [Example 190, [4-(3-Pyridylmethylamino)-2-phenylbenzoyl]homoserine Lactone]: the inhibition at 1 µM amounted to 4%.

As for `Cc1ccccc1-c1cc(COc2cccnc2)ccc1C(=O)N[C@@H](CCS(C)(=O)=O)C(=O)O` [Example 311, N-[4-(3-Pyridyloxymethyl)-2-(2-methylphenyl)benzoyl]-2-amino-4-(methylsulfonyl)butanoic Acid], the inhibition at 1 µM worked out at 97%.

Regarding `CSCC[C@H](NC(=O)c1ccc(COc2cccnc2)cc1-c1ccccc1)C(=O)O` [Example 235, [4-(3-Pyridyloxymethyl)-2-phenylbenzoyl]methionine], the inhibition at 1 µM stood at 95%.

For the compound `CNC(=O)[C@H](CCSC)NC(=O)c1ccc(NCc2cccnc2)cc1-c1ccccc1` [Example 197, [4-(3-Pyridylmethylamino)-2-phenylbenzoyl]methioninemethylamide], the inhibition at 1 µM was determined as 1%.

Consider `COC(=O)[C@H](CCSC)NC(=O)c1ccc(CCc2cccnc2)cc1-c1ccccc1` [Example 212, {4-[2-(Pyrid-3-yl)ethyl]-2-phenylbenzoyl}methionine Methyl Ester], for which the inhibition at 1 µM amounted to 12%.

As for `CSCC[C@H](NC(=O)c1ccc(CSCc2c[nH]cn2)cc1-c1ccccc1C)C(=O)O` [Example 331, [4-(1H-Imidazol-4-ylmethylthiomethyl)-2-(2-methylphenyl)benzoyl]methionine], the inhibition at 1 µM was determined as 98%.

Regarding `CSCC[C@H](NC(=O)c1ccc(NC(=O)c2nccn2C)cc1-c1ccccc1)C(=O)O` [Example 186, [4-(1H-1-Methylimidazol-2-ylcarboxyamino)-2-phenylbenzoyl]methionine], the inhibition at 1 µM is 86%.

With `CSCC[C@H](NC(=O)c1ccc(COc2cccnc2)cc1-c1ccccc1)C(=O)NS(C)(=O)=O` [Example 250, [4-(3-Pyridyloxymethyl)-2-phenylbenzoyl]methionine Methylsulfonimide], the inhibition at 1 µM came to 96%.

Still in this assay, the particulars now being: Inhibition of farnesyltransferase; compound at 1 × 10^−7 M (Table 3); read-out: % inhibition at 1 × 10^−7 M.
On to `CSCC[C@@H](C(=O)O)N(C)C(=O)c1ccc(CN(Cc2ccccc2)c2cccnc2)cc1-c1ccccc1C` [Example 602, N-[4-(N-Benzyl-N-pyrid-3-ylaminomethyl)-2-(2-methylphenyl)benzoyl]-N-methylmethionine], for which the inhibition at 0.1 µM turned out to be 97%.

As to `CSCC[C@H](NC(=O)c1ccc(/C=C/c2cnccc2C2(O)CCCCC2)cc1-c1ccccc1C)C(=O)O` [Example 482, N-[4-(2-(4-Cyclohexan-1-ol-1-yl)-pyrid-3-ylethen-1-yl)-2-(2-methylphenyl)benzoyl]methionine Lithium Salt], the inhibition at 0.1 µM turned out to be 96%.

Consider `CSCC[C@H](NC(=O)c1ccc(CCc2cnccc2C(O)c2ccccc2)cc1-c1ccccc1C)C(=O)O` (stereo partly drawn) [Example 485, N-[4-(2-(4-α-Hydroxybenzyl)pyrid-3-ylethyl)-2-(2-methylphenyl)benzoyl]methionine Lithium Salt], for which the inhibition at 0.1 µM was 96%.

For the compound `CCCCCc1cc(C(=O)N[C@@H](CCSC)C(=O)O)c(-c2ccccc2C)cc1COc1cccnc1` [Example 919, N-[5-Pentyl-4-(pyrid-3-yloxymethyl)-2-(2-methylphenyl)benzoyl]methionine], the inhibition at 0.1 µM was 91%.

Still in this assay, the particulars now being: Inhibition of farnesyltransferase; compound at 1 × 10^−8 M (Table 4); read-out: % inhibition at 1 × 10^−8 M.
In the case of `COc1ccccc1-c1cc(NCc2cnc[nH]2)ccc1C(=O)N[C@@H](CC(C)C)C(=O)O` [Example 397], the inhibition at 0.01 µM was 50%.

`CSCC[C@H](NC(=O)c1ccc(OCCn2ccnc2)cc1-c1ccccc1)C(=O)O` [Example 958, N-[4-(2-Imidazol-1-ylethoxy)-2-phenylbenzoyl]methionine]: the inhibition at 0.01 µM is more than 50%.

Staying with this assay, now noted: read-out: % inhibition at 1 × 10^−7 M.
As to `CSCC[C@H](NC(=O)c1ccc(C=Cc2ccc(Oc3ccccc3)nc2)cc1-c1ccccc1C)C(=O)O` [Example 800, N-[4-(2-(6-Phenyloxypyrid-3-yl)ethen-1-yl)-2-(2-methylphenyl)benzoyl]methionine Lithium Salt], the inhibition at 0.1 µM is 74%.

`CSCC[C@H](NC(=O)c1ccc(CCc2ccc(Oc3ccccc3)nc2)cc1-c1ccccc1C)C(=O)O` [Example 801, N-[4-(2-(6-Phenyloxypyrid-3-yl)ethyl)-2-(2-methylphenyl)benzoy]methionine Lithium Salt]: the inhibition at 0.1 µM amounted to 87%.

For the compound `Cc1ccccc1-c1cc(CCc2cnc3ccccc3c2)ccc1C(=O)N[C@@H](CC[S+](C)[O-])C(=O)O` (stereo in doubt) [Example 490, N-[4-(2-Quinolin-3-ylethyl)-2-(2-methylphenyl)benzoyl]-2-amino-4-methylsulfinylbutanoic Acid Lithium Salt], the inhibition at 0.1 µM came out at 70%.

The assay is the same for the next values; noted with them: read-out: % inhibition at 1 × 10^−8 M.
In the case of `CSCC[C@H](NC(=O)c1ccc(/C=C/c2cnccc2C(O)C23CC4CC(CC(C4)C2)C3)cc1-c1ccccc1C)C(=O)O` (stereo partly shown) [Example 803, Lithium Salt], the inhibition at 0.01 µM was 95%.
